Assay [1] concerns human DYRK1A and Tau. The experiment in a line: Tau phosphorylation inhibition, ClariCELL Kinase Cell-Based Assay (Carnabio). In outline: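 HEK293 cells transiently expressing human DYRK1A and Tau were exposed to compound, then lysed. Released Tau was captured on plate and its phosphorylation quantified by ELISA with a phospho-Tau-specific antibody.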
The target of assay [2] is T1, LRRK2, LRRK2 (G2019S), DYRK1, CLK1 and TTK kinases (Homo sapiens, UniProt Q13627).
T1 construct: other: DYRK1; Kinase HotSpot service (Reaction Biology), ATP 10 uM
The experiment in a line: Enzyme IC50 by Kinase HotSpot service (Reaction Biology Corporation), values marked with *. As to conditions: DYRK1, ATP 10 uM. The class given is biochemical. In outline: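 Radiometric-service kinase assays (Reaction Biology HotSpot protocol) run at 10 uM ATP under uniform conditions. Compounds tested as 3-fold dilution series from a top concentration of […] to give IC50.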

Some results are limits rather than exact numbers.

One may read the inhibition as the change of the read-out against control, counted positive when it falls. The IC50 is the concentration at which inhibition is half-maximal. A higher IC50 goes with lower potency.

For `O=C(c1ccc(Nc2cc(NC3CC3)c3c(C(F)(F)F)c[nH]c3n2)c2c1CCO2)N1CCC(N2CCOCC2)CC1` [Example 92, (7-((4-(cyclopropylamino)-3-(trifluoromethyl)-1H-pyrrolo[2,3-b]pyridin-6-yl)amino)-2,3-dihydrobenzofuran-4-yl)(4-morpholinopiperidin-1-yl)methanone], in assay [1], the inhibition at 0.25 µM was determined as 27.5%, the inhibition at 0.5 µM is 52.4% and the inhibition at 1 µM was 77.2%.
For `CCNc1cc(Nc2ccc(C(=O)N3CCC(N4CCOCC4)CC3)c3c2OCC3)nc2[nH]cc(C(F)(F)F)c12` [Example 90, (7-((4-(ethylamino)-3-(trifluoromethyl)-1H-pyrrolo[2,3-b]pyridin-6-yl)amino)-2,3-dihydrobenzofuran-4-yl)(4-morpholinopiperidin-1-yl)methanone], in that order: 23.3%, 51.7% and 70.3%.
In turn, `COc1cc(S(=O)(=O)N2CCOCC2)ccc1Nc1cc(C2CC2)c2c(C(F)(F)F)c[nH]c2n1` [Example 222, 4-cyclopropyl-N-(2-methoxy-4-(morpholinosulfonyl)phenyl)-3-(trifluoromethyl)-1H-pyrrolo[2,3-b]pyridin-6-amine] showed an IC50 in assay [2] of 101 to 300 nM.
For `CNc1cc(Nc2ccc(S(=O)(=O)N3CCC(N4C[C@H]5C[C@@H]4CO5)CC3)cc2OC)nc2[nH]cc(C(F)(F)F)c12` [Example 243, N^6-(4-((4-((1R,4R)-2-oxa-5-azabicyclo[2.2.1]heptan-5-yl)piperidin-1-yl)sulfonyl)-2-methoxyphenyl)-N^4-methyl-3-(trifluoromethyl)-1H-pyrrolo[2,3-b]pyridine-4,6-diamine], in assay [1], the inhibition at 0.25 µM was found to be 64.4%, the inhibition at 0.5 µM turned out to be 85% and the inhibition at 1 µM worked out at 104%.
On to `CCNc1cc(Nc2ccc(P3(=O)CCN(C4CCOCC4)CC3)cc2OC)nc2[nH]cc(C(F)(F)F)c12` [Example 94, 4-(4-((4-(ethylamino)-3-(trifluoromethyl)-1H-pyrrolo[2,3-b]pyridin-6-yl)amino)-3-methoxyphenyl)-1-(tetrahydro-2H-pyran-4-yl)-1,4-azaphosphinane 4-oxide], for which, in assay [1], the inhibition at 0.25 µM was determined as 22.2%, the inhibition at 0.5 µM was 30.5% and the inhibition at 1 µM turned out to be 53.2%.
Taken in the same sequence, the figures for `COCCNc1cc(Nc2ccc(S(=O)(=O)N3CCC(N4CCOCC4)CC3)c3c2OCCO3)nc2[nH]cc(C(F)(F)F)c12` [Example 97, N^4-(2-methoxyethyl)-N^6-(8-((4-morpholonopiperidin-1-yl)sulfonyl)-2,3-dihydrobenzo[b] [1,4]dioxin-5-yl)-3-(trifluoromethyl)-1H-pyrrolo[2,3-b]pyridine-4,6-diamine] were 22.3%, 42% and 67.2%.
With `N#Cc1c[nH]c2nc(Nc3ccc(C(=O)N4CCC(N5CCOCC5)CC4)c4c3OCCO4)cc(C3CC3)c12` [Example 226, 4-cyclopropyl-6-((8-(4-morpholinopiperidine-1-carbonyl)-2,3-dihydrobenzo[b] [1,4]dioxin-5-yl)amino)-1H-pyrrolo[2,3-b]pyridine-3-carbonitrile], the IC50 in assay [2] is less than 100 nM.
The same measure, in the same setting: the value for `COc1cc(S(=O)(=O)N2CCC(N3CCOCC3)CC2)ccc1Nc1cc(C2CC2)c2c(C#N)c[nH]c2n1` [Example 228, 4-cyclopropyl-6-((2-methoxy-4-((4-morpholinopiperidin-1-yl)sulfonyl)phenyl)amino)-1H-pyrrolo[2,3-b]pyridine-3-carbonitrile] was less than 100 nM.
For the molecule `CCNc1cc(Nc2ccc(C(=O)N3CCN(C4COC4)CC3)c3c2OCC3)nc2[nH]cc(C(F)(F)F)c12` [Example 248, (7-((4-(ethylamino)-3-(trifluoromethyl)-1H-pyrrolo[2,3-b]pyridin-6-yl)amino)-2,3-dihydrobenzofuran-4-yl)(4-(oxetan-3-yl)piperazin-1-yl)methanone], in assay [1], the inhibition at 0.25 µM worked out at 53.5%, the inhibition at 0.5 µM was found to be 76% and the inhibition at 1 µM stood at 95.1%.
In assay [2], `N#Cc1c[nH]c2nc(Nc3ccc(C(=O)N4CCOCC4)c4c3OCCO4)cc(C3CC3)c12` [Example 225, 4-cyclopropyl-6-((8-(morpholine-4-carbonyl)-2,3-dihydrobenzo[b] [1,4]dioxin-5-yl)amino)-1H-pyrrolo[2,3-b]pyridine-3-carbonitrile] showed an IC50 of 101 to 300 nM.
Consider `CNc1cc(Nc2ccc(C(=O)N3CCC(N4CCOCC4)CC3)c3c2OCC3)nc2[nH]cc(C(F)(F)F)c12` [Example 234, (7-((4-(methylamino)-3-(trifluoromethyl)-1H-pyrrolo[2,3-b]pyridin-6-yl)amino)-2,3-dihydrobenzofuran-4-yl)(4-morpholinopiperidin-1-yl)methanone], for which, in assay [1], the inhibition at 0.25 µM was determined as 41.8%, the inhibition at 0.5 µM stood at 65.3% and the inhibition at 1 µM was 81.5%.
Take `CCNc1cc(Nc2ccc(C(=O)N3CCN(C4COC4)CC3)c3c2OCCO3)nc2[nH]cc(C(F)(F)F)c12` [Example 173, (8-((4-(ethylamino)-3-(trifluoromethyl)-1H-pyrrolo[2,3-b]pyridin-6-yl)amino)-2,3-dihydrobenzo[b] [1,4]dioxin-5-yl)(4-(oxetan-3-yl)piperazin-1-yl)methanone]: in assay [1], the inhibition at 0.25 µM amounted to 5.2%, the inhibition at 0.5 µM came to 28.2% and the inhibition at 1 µM was found to be 46.4%.
`O=C(c1ccc(Nc2cc(C3CC3)c3c(C(F)(F)F)c[nH]c3n2)c2c1CCO2)N1CCOCC1` [Example 91, (7-((4-cyclopropyl-3-(trifluoromethyl)-1H-pyrrolo[2,3-b]pyridin-6-yl)amino)-2,3-dihydrobenzofuran-4-yl)(morpholino) methanone] gave an IC50 in assay [2] of less than 100 nM. Moreover, in assay [1], the inhibition at 0.25 µM was found to be 12.9%, the inhibition at 0.5 µM was 33.1% and the inhibition at 1 µM was 44.3%.
`O=C(c1ccc(Nc2cc(C3CC3)c3c(C(F)(F)F)c[nH]c3n2)c2c1CCO2)N1CCC(N2CCOCC2)CC1` [Example 93, (7-((4-cyclopropyl-3-(trifluoromethyl)-1H-pyrrolo[2,3-b]pyridin-6-yl)amino)-2,3-dihydrobenzofuran-4-yl)(4-morpholinopiperidin-1-yl)mthanone]: the IC50 in assay [2] is less than 100 nM. For the same molecule, in assay [1], the inhibition at 0.25 µM came out at 12%, the inhibition at 0.5 µM was determined as 28.8% and the inhibition at 1 µM amounted to 50.1%.
On to `COc1cc(P2(=O)CCN(C(C)=O)CC2)ccc1Nc1cc(C2CC2)c2c(C(F)(F)F)c[nH]c2n1` [Example 48, 1-(4-(4-((4-cyclopropyl-3-(trifluoromethyl)-1H-pyrrolo[2,3-b]pyridin-6-yl)amino)-3-methoxyphenyl)-4-oxido-1,4-azaphosphinan-1-yl)ethan-1-one], for which the IC50 in assay [2] was less than 100 nM.
Regarding `CNc1cc(Nc2ccc(S(=O)(=O)N3CCC(N4CCOCC4)CC3)c3c2OCCO3)nc2[nH]cc(C(F)(F)F)c12` [Example 233, N^4-methyl-N^6-(8-((4-morpholinopiperidin-1-yl)sulfonyl)-2,3-dihydrobenzo [b] [1,4]dioxin-5-yl)-3-(trifluoromethyl)-1H-pyrrolo[2,3-b]pyridine-4,6-diamine], in assay [1], the inhibition at 0.25 µM is 17.7%, the inhibition at 0.5 µM turned out to be 34.6% and the inhibition at 1 µM amounted to 70.3%.
In the case of `CCNc1cc(Nc2ccc(C(=O)N3CCC(N4C[C@H]5C[C@@H]4CO5)CC3)c3c2OCC3)nc2[nH]cc(C(F)(F)F)c12` [Example 244, (4-((1R,4R)-2-oxa-5-azabicyclo[2.2.1]heptan-5-yl)piperidin-1-yl)(7-((4-(ethylamino)-3-(trifluoromethyl)-1H-pyrrolo[2,3-b]pyridin-6-yl)amino)-2,3-dihydrobenzofuran-4-yl)methanone], in assay [1], the inhibition at 0.25 µM was determined as 58%, the inhibition at 0.5 µM came out at 86% and the inhibition at 1 µM was determined as 107%.
For `O=C(c1ccc(Nc2cc(C3CC3)c3c(C(F)(F)F)c[nH]c3n2)c2c1OCO2)N1CCC(N2CCOCC2)CC1` [Example 49, (7-((4-cyclopropyl-3-(trifluoromethyl)-1H-pyrrolo[2,3-b]pyridin-6-yl)amino)benzo[d][1,3]dioxol-4-yl)(4-morpholinopiperidin-1-yl)methanone], the IC50 in assay [2] fell in the range of 101 to 300 nM.
Consider `CNc1cc(Nc2ccc(C(=O)N3CC[C@@H](N4CCOCC4)C3)c3c2OCC3)nc2[nH]cc(C(F)(F)F)c12` [Example 214, (R)-(7-((4-(methylamino)-3-(trifluoromethyl)-1H-pyrrolo[2,3-b]pyridin-6-yl)amino)-2,3-dihydrobenzofuran-4-yl)(3-morpholinopyrrolidin-1-yl)methanone], for which, in assay [1], the inhibition at 0.25 µM stood at 33.9%, the inhibition at 0.5 µM was 60.1% and the inhibition at 1 µM was found to be 76.8%.

The record behind these values is patent publication US12240844B2 (Voronoi, Inc., priority 2019, dated 2025).
